Data on 8 compounds can be found in patent US20240391800A1, “HYPERSALINE DESALINATION USING IONIC LIQUIDS AND LOW-TEMPERATURE HEAT” (UNIVERSITY OF NOTRE DAME DU LAC, priority 2021, published 2024).

Data set [1] can be described thus: Ionic liquid concentration / solubility in NaCl solution or brine. It counts as physicochemical. As to the method:
Additional experiments were performed to measure IL concentration in the brine with different salinities. In these experiments, the brine (MX, FIG. 1) salinity is 4% or higher depending on the initial mixing ratio of the saline water and IL.

Data set [2] can be described thus: Viscosity (rheometer). The class given is physicochemical. The conditions noted are these: for Viscosity: TA Instrument Discovery HR-2, temperature not stated; for Viscosity in Pa · s: 293 K. As to the method:
Table 3. The viscosity was measured with Discovery Hybrid Rheometer 2.

The nature of data set [3]: Directional solvent extraction (DSE) desalination cycle, moderate / seawater-salinity NaCl feed. The conditions noted are these: seawater salinity feedwater (3.5 wt %, 14,000 ppm Na+).
Protocol: (§1) The mixture was maintained at that temperature for ˜10 minutes for phase separation, expecting the brine to separate from the IL. The IL phase, which contained pure water dissolved within it, was collected, and cooled down to room temperature, precipitating out the fresh water due to lowered solubility in the IL. The separation of these two phases was facilitated by a centrifuge at 3000 rpm. The amount of recovered water was used to calculate the yield, and the water was also characterized for contents of NaCl ions and residual ILs to verify directional solubilities. The NaCl ion concentration was measured using Perkin Elmer Optima 8000 ICP-OES and the IL content is measured using Waters TQD triple mass spectrometer coupled to an Acquity ultrahigh pressure liquid chromatography system.
All Na^+ concentration measurements were performed using Perkin Elmer Optima 8000 ICP-OES. Since all water samples in the experiment were deionized water, it was rational to assume that the molar concentration of Na^+ was equal to that of NaCl. […] A set of calibration curves of conductivity versus Na^+ ion concentration was created prior to the measurements. […] Samples with different IL/water ratios are mixed in beaker with stirring speed of 300 rpm for 10 hours, and then a 3-hour sitting period was allowed to guarantee thermodynamic equilibrium of dissolution. Because the ILs tested have higher density than water, the solution in the top layer was extracted as the sample. […] The intensity of a certain ion acquired by the mass spectrometer proportionally reflected the concentration of this kind of ion in the water solution.
The DS performance in a DSE desalination cycle was evaluated for the assembled ILs, which involved first exposure to water bearing 3.7-5.0 wt % of NaCl (11,000-15,000 ppm of Na^+) followed by thorough mixing at elevated temperatures of 45, 60 or 75° C. […] The amount of residual NaCl and IL in the recovered aqueous phase was then measured using atomic emission spectroscopy and liquid chromatography-mass spectrometry.
A short description of data set [4]: Solubility of ionic liquid in water (LC-MS of [Tf2N]-). Conditions: for Solubility in H2O: Table 7 / Example 2; for Solubility in H2O (ppm): IL in water / residual in recovered water.
Protocol: Samples with different IL/water ratios are mixed in beaker with stirring speed of 300 rpm for 10 hours, and then a 3-hour sitting period was allowed to guarantee thermodynamic equilibrium of dissolution. Because the ILs tested have higher density than water, the solution in the top layer was extracted as the sample. […] The intensity of a certain ion acquired by the mass spectrometer proportionally reflected the concentration of this kind of ion in the water solution.
Data set [5] in a line: DSE desalination cycle, high-salinity / saturated / hypersaline NaCl feed.
Protocol: as §1

Where “and” joins values, the source holds several entries; their conditions need not be identical. Identical values can stand only once.

For `CC[n+]1ccn(C)n1` [[1,2,3-emtriz][Tf2N], 1-ethyl-3-methyl-1,2,3-triazolium bistriflimide], in data set [1], the “solubility in 4% NaCl solution” value is “about 41 ppm”. Besides, the Viscosity in data set [2] was found to be 0.035 Pa · s. For the same compound, in data set [3], the “Ion rejection, seawater concentration” value was found to be 92.5%. The “Solubility in H2O” value in data set [4] is given as ~390 ppm.
Take `CC(C)C[C@H](NS(=O)(=O)C(F)(F)F)C(=O)O.CCCCCCCC[P+](CCCC)(CCCC)CCCC` [[P4448] I-Leu, Tributyloctylphosphonium trifluoromethanesulfonylleucine]: the “Viscosity in Pa · s” value in data set [2] was found to be 1.017 ± 0.078 Pa · s.
Regarding `CCCCCCCC[P+](CCCC)(CCCC)CCCC` [[P4448][Bzlm]] [Tributyloctylphosphonium benzo[d]imidazol-1-ide], in data set [2], the “Viscosity in Pa · s” value turned out to be 0.185 ± 0.092 Pa · s.
Take `CCCCCCCC[P+](CCCC)(CCCC)CCCC` [[P4448][Tf2N]] [Tributyloctylphosphonium bis(trifluoromethanesulfonyl)imide]: in data set [2], the “Viscosity in Pa · s” value is 0.433 Pa · s and 0.433 ± 0.099 Pa · s.
Take `CCCCCCCCCCCCCC[P+](CCCCCC)(CCCCCC)CCCCCC` [[P66614][Tf2N], Trihexyltetradecylphosphonium bis(trifluoromethanesulfonyl)imide]: the “Viscosity in Pa · s” value in data set [2] came to 0.081 ± 0.059 Pa · s.
With `CCCCn1cc[n+](C)c1` [[bmim][Tf2N], 1-Butyl-3-methylimidazolium bis(trifluoromethylsulfonyl)imide], the “Viscosity in Pa · s” value in data set [2] was 0.056 ± 0.010 Pa · s. Further, the “Solubility in H2O (ppm)” value in data set [4] was <90 ppm.
In the case of `CCn1cc[n+](C)c1` [[emim][Tf2N], 1-Ethyl-3-methylimidazolium bis(trifluoromethylsulfonyl)imide], the “IL concentration in the brine (MX)” value in data set [1] (brine with 4% salinity) is on record as 4 ppm. The “IL solubility in saturated NaCl solution” value in data set [1] (saturated NaCl solution) is listed as “lower than 4 ppm”. Also, in data set [2], the “Viscosity in Pa · s” value was 0.033 ± 0.014 Pa · s. Besides, the “Solubility in H2O (ppm)” value in data set [4] is recorded as 130-150 ppm.
As for `COC[n+]1ccn(C)c1` [[mommim][Tf2N], 1-(methoxymethyl)-3-methyl-1H-imidazol-3-ium bis(trifluoromethylsulfonyl)imide], the “solubility in 4% NaCl solution” value in data set [1] is “about 26 ppm”. In data set [5] (NaCl 19.6 wt % hypersaline feed), the “highest salt rejection rate obtained” value was 95.8%. In addition, the “Ion rejection, hypersaline” value in data set [5] (NaCl 19.6 wt %, Na+ 77,300 ppm feed, average of samples) is recorded as 89.5%. This compound showed a Viscosity in data set [2] of 0.056 Pa · s. Also, the “Ion rejection, seawater concentration” value in data set [3] is given as 95.2%. Further, the “Solubility in H2O” value in data set [4] was ~270 ppm.
